Experiments:
Test in all cases: relative viability (nuclei count vs DMSO), 5 days (fraction); higher = more cells survive
Sulindac + Crizotinib = compound: CC1=C(CC(=O)O)c2cc(F)ccc2/C1=C\c1ccc([S+](C)[O-])cc1 [Sulindac] + C[C@@H](Oc1cc(-c2cnn(C3CCNCC3)c2)cnc1N)c1c(Cl)ccc(F)c1Cl [Crizotinib] (partner 1 µM)
Summary of the method: (§1)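 Nuclei were stained with Hoechst during a one-step fixation (final 0.05% Triton X-100, 1% formaldehyde, 1 ug/ml Hoechst) carried out 5 days after dosing, then counted on 4× images. The cells, lung cancer lines in 1536-well plates, had been dosed by pin tool the day after seeding with one drug alone or a fixed anchor-drug dose plus five library-drug doses (not always all listed) in √10 steps. Relative viability is the nuclei count in treated wells divided by that in vehicle wells, and each value is the median of duplicate plates.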

Sulindac + Vorinostat = compound: CC1=C(CC(=O)O)c2cc(F)ccc2/C1=C\c1ccc([S+](C)[O-])cc1 [Sulindac] + O=C(CCCCCCC(=O)Nc1ccccc1)NO [Vorinostat] (partner 1 µM)
Summary of the method: as §1

[1] = compound: O=c1[nH]cc(F)c(=O)[nH]1 [5-Fluorouracil] + CC1(C)CCC(c2ccc(Cl)cc2)=C(CN2CCN(c3ccc(C(=O)NS(=O)(=O)c4ccc(N[C@H](CCN5CCOCC5)CSc5ccccc5)c(S(=O)(=O)C(F)(F)F)c4)cc3)CC2)C1 [Navitoclax] (partner 0.5 µM)
Summary of the method: as §1

[2] = compound: O=c1[nH]cc(F)c(=O)[nH]1 [5-Fluorouracil] + O=C(c1cc(Cc2n[nH]c(=O)c3ccccc23)ccc1F)N1CCN(C(=O)C2CC2)CC1 [Olaparib] (partner 8 µM)
Summary of the method: as §1

| Cell Line | relative viability (Sulindac + Crizotinib; first compound 0.08 µM) | relative viability (Sulindac + Crizotinib; first compound 0.253 µM) | relative viability (Sulindac + Crizotinib; first compound 0.8 µM) | relative viability (Sulindac + Crizotinib; first compound 2.53 µM) | relative viability (Sulindac + Crizotinib; first compound 8 µM) | relative viability (Sulindac + Vorinostat; first compound 0.08 µM) | relative viability (Sulindac + Vorinostat; first compound 0.253 µM) | relative viability (Sulindac + Vorinostat; first compound 0.8 µM) | relative viability (Sulindac + Vorinostat; first compound 2.53 µM) | relative viability (Sulindac + Vorinostat; first compound 8 µM) | relative viability ([1]; first compound 0.02 µM) | relative viability ([1]; first compound 0.2 µM) | relative viability ([1]; first compound 0.6325 µM) | relative viability ([1]; first compound 2 µM) | relative viability ([2]; first compound 0.02 µM) | relative viability ([2]; first compound 0.2 µM) | relative viability ([2]; first compound 0.6325 µM) | relative viability ([2]; first compound 2 µM) |
| --- | --- | --- | --- | --- | --- | --- | --- | --- | --- | --- | --- | --- | --- | --- | --- | --- | --- | --- |
| SK-LU-1 | 0.844 | 1.22 | 0.781 | 0.975 | 1.26 | 0.877 | 0.901 | 0.74 | 0.722 | 0.874 | 1.1 | 1.2 | 0.796 | 0.753 | 0.511 | 0.551 | 0.557 | 0.407 |
| CAL-12T | 0.689 | 0.661 | 0.563 | 0.629 | 0.797 | 0.783 | 0.858 | 0.671 | 0.821 | 1.07 | 1.13 | 1.25 | 0.974 | 0.489 | 0.701 | 0.634 | 0.638 | 0.365 |
| COR-L 105 | 0.957 | 0.901 | 0.759 | 0.776 | 0.911 | 0.95 | 0.982 | 0.856 | 0.77 | 0.967 | 0.707 | 0.685 | 0.694 | 0.582 | 0.713 | 0.792 | 0.58 | 0.512 |
| NCI-H2405 | 0.907 | 0.899 | 0.701 | 0.85 | 0.939 | 1.08 | 1.04 | 0.923 | 0.971 | 1.28 | 0.93 | 0.793 | 0.858 | 0.59 | 0.808 | 0.962 | 0.891 | 0.618 |
| NCI-H2228 | 0.504 | 0.47 | 0.519 | 0.475 | 0.479 | 0.588 | 0.831 | 0.497 | 0.981 | 0.865 | 0.808 | 1.06 | 0.732 | 0.42 | 0.998 | 0.671 | 0.44 | 0.33 |
| PC-3 [JPC-3] | 1.09 | 1.06 | 0.959 | 1.02 | 1.02 | 0.839 | 0.786 | 0.647 | 0.778 | 0.967 | 0.793 | 0.759 | 0.767 | 0.63 | 1.17 | 1.14 | 1.09 | 0.912 |
| SW 1573 | 0.825 | 0.742 | 0.766 | 0.869 | 0.867 | 0.777 | 0.95 | 0.585 | 0.683 | 1.11 | 1.02 | 1.13 | 0.782 | 0.501 | 0.477 | 0.625 | 0.416 | 0.262 |
| A549 | 1.13 | 0.783 | 0.651 | 0.892 | 0.924 |  |  |  |  |  | 1.2 | 0.754 | 0.244 | 0.114 | 0.298 | 0.501 | 0.202 | 0.0825 |
| NCI-H1648 |  |  |  |  |  | 0.44 | 0.318 |  | 0.402 | 0.512 |  |  |  |  | 0.632 | 0.796 | 0.638 | 0.332 |
| NCI-H1666 |  | 1.03 | 0.942 | 0.949 | 1.17 | 0.981 | 1.06 | 0.867 | 0.891 | 1.1 | 0.878 | 0.406 | 0.327 | 0.311 | 0.861 | 0.67 | 0.647 | 0.625 |
